Several values for one entry are separate records, joined by “and”; a condition that tells them apart may be missing. Identical values can stand only once. Like-named read-outs stand apart in the source and are kept apart here.

The EC50 is the midpoint of the concentration-response curve.

One assay concerns the target T1, THIK-1 N261A (Homo sapiens, UniProt Q9HB14, N261A).
T1 construct: expressed in transfected cells; host or cells: Xenopus oocytes (mRNA injection)
As to the kind of experiment: Inside-out excised patch recordings, oocytes, THIK-1 N261A mutant (lipid activation). The conditions noted are these: read-out: Linoleic acid EC50. It counts as cell-based. The text has this:
Supplement 41594_2025_1497_MOESM2_ESM.xlsx, sheet "ExtData_Fig_S5f" | column: Linoleic acid EC50 (µM); N261A

In another assay the target is T2, THIK-1 F262A (Homo sapiens, UniProt Q9HB14, F262A).
T2 construct: expressed in transfected cells; host or cells: Xenopus oocytes (mRNA injection)
T2 sequence (Q9HB14 1-408 F262A): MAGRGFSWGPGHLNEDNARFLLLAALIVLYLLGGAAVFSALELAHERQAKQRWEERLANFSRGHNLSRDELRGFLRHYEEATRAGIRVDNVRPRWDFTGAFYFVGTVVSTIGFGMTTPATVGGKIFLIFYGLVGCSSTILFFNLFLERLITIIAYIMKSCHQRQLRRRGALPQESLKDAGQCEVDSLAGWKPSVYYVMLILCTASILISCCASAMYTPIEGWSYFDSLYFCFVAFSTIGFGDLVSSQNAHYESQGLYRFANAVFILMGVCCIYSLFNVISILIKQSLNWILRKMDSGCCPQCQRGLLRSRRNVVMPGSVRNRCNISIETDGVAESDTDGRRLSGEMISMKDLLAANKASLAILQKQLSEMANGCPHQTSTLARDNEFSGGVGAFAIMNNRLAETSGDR
The experiment in a line: Inside-out excised patch recordings, oocytes, THIK-1 F262A mutant (lipid activation). In kind it is cell-based. The conditions noted are these: for EC50: Linoleic acid EC50, THIK-1 F262A; for Normalized currents / Fold activation with 30.0 µM linoleic acid: THIK-1 F262A. An excerpt:
Human K2P13.1 THIK-1 (GenBank accession number: NM_022054) and human K2P12.1 THIK-2 (NM_022055.1) were used in this study. For functional expression studies, the respective K^+ channel subtype coding sequences were subcloned into the oocyte expression vector pSGEM or the dual-purpose expression vector pFAW[41] and verified by sequencing. All mutant channels were obtained by site-directed mutagenesis and verified by sequencing. To increase surface expression and macroscopic currents, measurements of THIK-2 channels used a mutated ER retention motif, (R11A R12A R14A R15A R16A; THIK-2*)[20]. Vector DNA was linearized with NheI or MluI, and mRNA was synthesized in vitro using the SP6 or T7 AmpliCap Max High Yield Message Maker Kit (Cellscript, USA) or HiScribe T7 ARCA mRNA Kit (New England Biolabs).
Two-electrode voltage–clamp (TEVC) studies were performed in Xenopus oocytes. All animal use conformed to the Guide for the Care and Use of Laboratory Animals (NIH Publication 85–23), and all experiments using Xenopus toads were approved by the local ethics panels. Oocytes were stored at 17 °C in ND96 recording solution composed of (in mM): 96 NaCl, 2 KCl, 1.8 CaCl2, 1 MgCl2, 5 HEPES (pH 7.5 adjusted with NaOH and HCl), supplemented with Na-pyruvate (275 mg L^–1), theophylline (90 mg L^–1) and gentamicin (50 mg L^–1). Oocytes were injected with 1 ng mRNA for WT or mutant channels, and were incubated for 24–48 h at 17 °C. Two-electrode voltage clamp recordings were then performed as previously described[42],[43]. For macroscopic patch–clamp measurements, oocytes were obtained as described above incubated at 17 °C in a solution containing (mM): 54 NaCl, 30 KCl, 2.4 NaHCO3, 0.82 MgSO4 ×7 H2O, 0.41 CaCl2, 0.33 Ca(NO3)2 ×4 H2O and 7.5 TRIS (pH 7.4 adjusted with NaOH and HCl) for 1–4 days before use. Excised patch recordings in inside-out configuration conditions were performed at room temperature. Patch pipettes were made from thick-walled borosilicate glass GB 200TF-8P (Science Products), had resistances of 0.2–0.5 MΩ (tip diameter, 10–25 µm) and filled with a pipette solution (in mM): 120 KCl, 10 HEPES and 3.6 CaCl2 (pH 7.4 adjusted with KOH and HCl). Intracellular bath solutions and compounds were applied to the cytoplasmic side of excised patches for the various K^+ channels through a gravity flow multi-barrel pipette system. The intracellular solution had the following composition (in mM): 120 KCl, 10 HEPES, 2 EGTA and 1 pyrophosphate (pH adjusted with KOH and HCl). Currents were recorded with an EPC10 amplifier (HEKA Electronics) and sampled at 10 kHz or higher, with filtering set to 3 kHz (–3 dB) or higher, as appropriate for sampling rate. For measurements of GPCR activation, whole-cell currents were recorded for THIK-1 in transiently transfected HEK-293 cells. Cells were stimulated by a ramp protocol between −100 and +60 mV (holding potential, −80 mV). The pipette solution was composed of (in mM): 140 KCl, 2 MgCl2, 1 CaCl2, 2.5 EGTA and 10 HEPES (pH 7.3 adjusted with KOH and HCl). The extracellular bath solution had the following composition (in mM): 135 NaCl, 5 KCl, 2 MgCl2, 2 CaCl2, 10 glucose and 10 HEPES pH (pH 7.3 adjusted with NaOH and HCl). Oxotremorine M (Oxo-M) was added to extracellular bath solution to obtain the final concentration. Single-channel currents were recorded with an Axopatch 200B amplifier through a Digidata 1440A digitizer (Molecular Devices). Data were filtered at 2 kHz and recorded at a 200-kHz sampling rate with the program Clampex (Molecular Devices). Pipette solution and bath solution for cell-attached recordings contained (in mM): 140 KCl, 2 MgCl2, 1 CaCl2 and 10 HEPES (pH 7.4 adjusted with KOH and HCl). For inside-out recordings, the bath solution contained (in mM): 140 KCl, 2 MgCl2, 1 CaCl2 and 10 HEPES (pH 7.2 adjusted with KOH and HCl). All experiments were conducted at room temperature. […]

T1 sequence (Q9HB14 whole entry N261A): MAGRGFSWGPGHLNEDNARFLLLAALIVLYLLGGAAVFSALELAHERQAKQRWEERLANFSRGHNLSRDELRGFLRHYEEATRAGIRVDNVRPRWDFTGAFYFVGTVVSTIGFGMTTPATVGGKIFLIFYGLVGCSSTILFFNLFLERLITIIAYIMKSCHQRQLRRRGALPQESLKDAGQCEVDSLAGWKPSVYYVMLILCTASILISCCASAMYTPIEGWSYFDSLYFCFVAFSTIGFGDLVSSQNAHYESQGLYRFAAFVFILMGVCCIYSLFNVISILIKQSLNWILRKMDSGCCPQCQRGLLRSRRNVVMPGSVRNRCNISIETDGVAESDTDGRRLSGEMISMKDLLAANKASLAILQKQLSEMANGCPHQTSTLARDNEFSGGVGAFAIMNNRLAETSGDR

With `CCCCC/C=C\C/C=C\CCCCCCCC(=O)O` [linoleic acid], the EC50 is 92.8 µM and 196 µM and 39.8 µM and 91.8 µM and 102 µM and 140 µM on THIK-1 N261A (individual recordings); 110 µM on THIK-1 N261A (mean); 48.7 µM and 50.7 µM and 292 µM and 208 µM and 91.3 µM and 64.3 µM and 43.4 µM and 58.4 µM on THIK-1 F262A (individual recordings); 107 µM on THIK-1 F262A (mean). Also, the Normalized currents on THIK-1 F262A (1 µM linoleic acid) stood at 0.94; on THIK-1 F262A (10 µM linoleic acid), 1.46; on THIK-1 F262A (30 µM linoleic acid) it was 1.58; on THIK-1 F262A (50 µM linoleic acid), 2.39; on THIK-1 F262A (100 µM linoleic acid) it was 3.02; at THIK-1 F262A (150 µM linoleic acid), 3.33. The compound also came in with a Normalized currents on THIK-1 F262A (200 µM linoleic acid) of 3.40. Also, the “Fold activation with 30.0 µM linoleic acid” value is 1.770 and 1.480 and 1.860 and 1.430 and 1.420 and 1.440 on THIK-1 F262A (individual recordings); 1.57 at THIK-1 F262A (mean).

These data come from article PMC12263422, “Cryo-EM structure of the human THIK-1 K2P K^+ channel reveals a lower Y gate regulated by lipids and anesthetics” (Nature Structural & Molecular Biology, 2025).
